According to patent EP0644191A1, “PYRIDINE COMPOUND AND MEDICINAL USE THEREOF” (YOSHITOMI PHARMACEUTICAL INDUSTRIES, LTD., priority 1992, dated 1993):
Values after ≈ are worked out from the molar mass of the structure shown.

Tests used:
[1] = Aspirin/hydrochloric acid-induced gastric ulcer in rats; type: in vivo; details: for Ulcer index (mean±standard deviation): 30 min before aspirin 100 mg/kg, stomach removed 4 hours later, control 5.0±0.51; for Change (%): change of ulcer index versus control
Protocol: Male rats weighing about 200 g (16 rats per group) were fasted for 20 hours and the test solution was orally administered to the rats. Thirty minutes later, aspirin (100 mg/kg) containing 0.3N hydrochloric acid was orally administered.
Four hours later, the stomach was removed and the area which developed ulcer was examined. A square root of the total ulcer area was taken as an ulcer index.

[2] = system: Staphylococcus aureus FDA 209P; assay: Antibacterial spectrum, agar plate dilution MIC; type: cell-based; details: FDA209P, 37°C, 8% CO₂, 3-4 days, read-out: MIC S. aureus
Protocol: (§1) The test bacterium precultured in Muller-Hinton liquid medium was diluted with the same medium to give a bacterial solution of about 10⁶ cell/ml for inoculation. The dilute bacterial solution was spot inoculated with a microplanter on an agar plate containing 2-fold dilution concentration series of the test compound and the cells were incubated at 37°C under 8% CO₂ for 3-4 days. The minimum inhibitory concentration (MIC) in respective strains was determined, based on which MIC was calculated.

[3] = system: Pseudomonas aeruginosa IFO 12582; assay: Antibacterial spectrum, agar plate dilution MIC; type: cell-based; details: IFO12582, 37°C, 8% CO₂, 3-4 days, read-out: MIC P. aeruginosa
Protocol: as §1

[4] = system: Escherichia coli NIHJ JC-2; assay: Antibacterial spectrum, agar plate dilution MIC; type: cell-based; details: NIHJJC2, 37°C, 8% CO₂, 3-4 days
Protocol: as §1

[5] = system: Candida albicans IFO 1060; assay: Antifungal spectrum, agar plate dilution MIC; type: cell-based; details: IFO1060, 37°C, 8% CO₂, 3-4 days
[6] = system: Helicobacter pylori; assay: Antibacterial activity (in vitro), agar plate dilution method, clinical isolates (18 strains); type: cell-based; details: 18 clinical isolates, 37°C, 8% CO₂, 3-4 days
Protocol: Antibacterial activity (in vitro) of the compound of the present invention against Helicobacter pylori was determined by the following agar plate dilution method. […] The cultures were diluted with Brucella broth to give a concentration of approximately 10⁶ cell/ml. The diluted bacterial solution was spot inoculated with a microplanter on an agar plate containing 2-fold dilution concentration series of the test compound. The cells were incubated at 37°C under 8% CO₂ for 3-4 days. The minimum inhibitory concentration (MIC) in respective strains was determined, based on which MIC₅₀ and MIC₉₀ were calculated.

[7] = Acute toxicity in mice, observed for 5 days; type: in vivo
From the text: As a result, no death case was found.

Compound	Ulcer index (mean±standard deviation) ([1]; 10 mg/kg p.o.)	Change (%) ([1]; 10 mg/kg p.o.)	Ulcer index (mean±standard deviation) ([1]; 30 mg/kg p.o.)	Change (%) ([1]; 30 mg/kg p.o.)	MIC [2] [µg/mL]	MIC [3] [µg/mL]	MIC [4] [µg/mL]	MIC [5] [µg/mL]	MIC50 [6] [µg/mL]	MIC90 [6] [µg/mL]	death ([7]; intraperitoneally 300 mg/kg)	death ([7]; orally 1000 mg/kg)
Cc1c(SCCN2CCOCC2)ccnc1CSc1nc2ccccc2[nH]1 [Example 1, 2-(3-methyl-4-(2-morpholinoethylthio)-2-pyridyl)methylthio-1H-benzimidazole]	3.1±0.33	-37	2.3±0.49	-55	> 100	> 100	> 100	> 100	≤ 0.006	0.012 (≈ 0.03 µM)		
Cc1c(SCCN2CCc3ccccc3C2)ccnc1CSc1nc2ccccc2[nH]1 [Example 2, 2-(3-methyl-4-(2-(1,2,3,4-tetrahydroisoquinolin-2-yl)ethylthio)-2-pyridyl)methylthio-1H-benzimidazole]					> 100	> 100	> 100	> 100	≤ 0.006	≤ 0.006	no death case	no death case
Cc1c(SCCN(C)Cc2ccccc2)ccnc1CSc1nc2ccccc2[nH]1 [Example 3]					> 100	> 100	> 100	> 100	0.025 (≈ 0.0575 µM)	0.05 (≈ 0.115 µM)		
Cc1c(SC2CCN(Cc3ccccc3)CC2)ccnc1CSc1nc2ccccc2[nH]1 [Example 7, 2-(4-(1-benzyl-4-piperidyl)thio-3-methyl-2-pyridyl)methylthio-1H-benzimidazole]					> 100	> 100	> 100	> 100	0.012 (≈ 0.026 µM)	0.025 (≈ 0.0543 µM)		
Cc1c(SCCN2CCc3ccccc3C2)ccnc1CSc1nc2ncccc2[nH]1 [Example 12, 2-((3-methyl-4-(2-(1,2,3,4-tetrahydroisoquinolin-2-yl)ethylthio)-2-pyridyl)methylthio)imidazo[5,4-b]pyridine]									0.012 (≈ 0.0268 µM)	0.025 (≈ 0.0558 µM)		
Cc1c(SCC[N+]2([O-])CCOCC2)ccnc1CSc1nc2ccccc2[nH]1 [Example 28, 4-(2-((2-(1H-benzimidazol-2-yl)thiomethyl-3-methyl-4-pyridyl)thio)ethyl)morpholine N-oxide]					> 100	> 100	> 100	> 100	0.025 (≈ 0.06 µM)	0.025 (≈ 0.06 µM)		
Cc1c(OCCN2CCc3ccccc3C2)ccnc1CSc1nc2ccccc2[nH]1 [Ref. Compound 1, 2-(3-methyl-4-(2-(1,2,3,4-tetrahydroisoquinolin-2-yl)ethoxy)-2-pyridyl)methylthio-1H-benzimidazole, reference compound]									0.05 (≈ 0.116 µM)	0.1 (≈ 0.232 µM)		
Cc1c(OCCN(C)Cc2ccccc2)ccnc1C[S+]([O-])c1nc2ccccc2[nH]1 (centres unmarked) [Ref. Compound 2, 2-(3-methyl-4-(2-(N-benzyl-N-methylamino)ethoxy)-2-pyridyl)methylsulfinyl-1H-benzimidazole, reference compound]									0.1 (≈ 0.23 µM)	0.2 (≈ 0.46 µM)		
Cc1c(OCCN2CCc3ccccc3C2)ccnc1C[S+]([O-])c1nc2ccccc2[nH]1 (centres unmarked) [Ref. Compound 3, 2-(3-methyl-4-(2-(1,2,3,4-tetrahydroisoquinolin-2-yl)ethoxy)-2-pyridyl)methylsulfinyl-1H-benzimidazole, reference compound]									0.05 (≈ 0.112 µM)	0.1 (≈ 0.224 µM)		
